According to patent US20250236608A1, “EGFR INHIBITORS” (Blueprint Medicines Corporation, priority 2022, published 2025):

Assays:
EGFR L858R = EGFR L858R (Homo sapiens (Human), UniProt P00533, L858R); assay: Biochemical EGFR inhibition assay, EGFR L858R; conditions: Caliper mobility shift; 1.0 mM ATP or ATP Km; read-out: Enz EGFR_L858R IC50
EGFR (d746-750) = EGFR (d746-750) (Homo sapiens (Human), UniProt P00533, DEL746-750); assay: Biochemical EGFR inhibition assay, EGFR (d746-750); conditions: Caliper mobility shift; 1.0 mM ATP or ATP Km; read-out: Enz EGFR_Exon19-del746-750 IC50
Chain of EGFR (d746-750) (P00533 other isoform, or with tags, fused parts or gaps del 1-694/del 746-750 limits assumed): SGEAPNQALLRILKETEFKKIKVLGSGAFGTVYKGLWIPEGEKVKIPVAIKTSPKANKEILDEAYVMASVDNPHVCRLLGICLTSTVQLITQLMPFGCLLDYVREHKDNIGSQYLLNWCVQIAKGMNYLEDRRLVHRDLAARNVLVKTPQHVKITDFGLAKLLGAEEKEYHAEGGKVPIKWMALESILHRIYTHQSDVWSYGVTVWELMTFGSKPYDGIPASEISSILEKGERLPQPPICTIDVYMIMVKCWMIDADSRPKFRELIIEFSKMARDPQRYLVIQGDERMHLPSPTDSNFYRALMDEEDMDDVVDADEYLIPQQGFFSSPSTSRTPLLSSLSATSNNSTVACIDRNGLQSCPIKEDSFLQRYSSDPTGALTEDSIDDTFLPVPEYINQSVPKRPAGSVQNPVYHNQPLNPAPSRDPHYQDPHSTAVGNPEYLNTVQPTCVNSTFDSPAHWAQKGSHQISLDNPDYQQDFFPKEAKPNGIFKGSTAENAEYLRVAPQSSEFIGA

[1] = target: pEGFR (Tyr1068) in PC-9 cells (Ex19Del) (Homo sapiens (Human), UniProt P00533, DEL746-750); assay: PC-9 pEGFR AlphaLISA assay; format: cell-based; conditions: 4 hours incubation, p-EGFR (Tyr1068) AlphaLISA, read-out: Ext pEGFR_PC-9 Ex19Del IC50
Chain of pEGFR (Tyr1068) in PC-9 cells (Ex19Del) (P00533 other isoform, or with tags, fused parts or gaps del 746-750): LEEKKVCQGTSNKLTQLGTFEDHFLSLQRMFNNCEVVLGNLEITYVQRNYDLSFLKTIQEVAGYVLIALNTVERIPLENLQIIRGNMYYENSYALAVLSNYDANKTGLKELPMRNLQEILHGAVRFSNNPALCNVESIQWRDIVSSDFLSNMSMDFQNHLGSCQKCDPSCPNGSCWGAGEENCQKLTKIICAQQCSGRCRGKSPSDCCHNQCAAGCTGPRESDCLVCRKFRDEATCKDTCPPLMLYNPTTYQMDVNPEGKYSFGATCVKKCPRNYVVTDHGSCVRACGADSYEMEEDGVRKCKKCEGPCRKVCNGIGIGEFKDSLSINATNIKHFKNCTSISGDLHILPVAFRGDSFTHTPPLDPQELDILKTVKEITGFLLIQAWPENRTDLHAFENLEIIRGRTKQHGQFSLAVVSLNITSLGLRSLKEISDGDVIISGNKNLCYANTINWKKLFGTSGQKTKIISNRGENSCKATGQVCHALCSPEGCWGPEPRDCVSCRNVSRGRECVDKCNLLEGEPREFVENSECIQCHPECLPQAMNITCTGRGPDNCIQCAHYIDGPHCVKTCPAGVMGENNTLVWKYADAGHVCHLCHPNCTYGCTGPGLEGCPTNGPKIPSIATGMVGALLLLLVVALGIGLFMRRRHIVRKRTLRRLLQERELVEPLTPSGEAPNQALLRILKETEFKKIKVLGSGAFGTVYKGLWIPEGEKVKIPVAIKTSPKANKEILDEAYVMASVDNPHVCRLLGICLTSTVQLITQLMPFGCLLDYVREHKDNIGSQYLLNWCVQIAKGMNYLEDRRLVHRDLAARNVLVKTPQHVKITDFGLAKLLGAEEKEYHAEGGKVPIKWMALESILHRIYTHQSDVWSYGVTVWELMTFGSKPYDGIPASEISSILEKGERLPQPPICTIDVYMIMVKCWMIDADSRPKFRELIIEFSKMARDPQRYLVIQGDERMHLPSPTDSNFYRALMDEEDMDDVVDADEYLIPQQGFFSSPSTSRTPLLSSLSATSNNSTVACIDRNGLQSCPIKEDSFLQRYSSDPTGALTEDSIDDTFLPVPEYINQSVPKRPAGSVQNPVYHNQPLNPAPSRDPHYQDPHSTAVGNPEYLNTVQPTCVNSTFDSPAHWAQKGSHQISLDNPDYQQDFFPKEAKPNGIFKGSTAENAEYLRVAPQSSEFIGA
How it was run: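 Phospho-EGFR (Tyr1068) was quantified by AlphaLISA SureFire Ultra in lysates of PC-9 cells exposed for 4 h to compound (4-fold, 10-point dilutions).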

Chain of EGFR L858R (P00533 25-1210 L858R): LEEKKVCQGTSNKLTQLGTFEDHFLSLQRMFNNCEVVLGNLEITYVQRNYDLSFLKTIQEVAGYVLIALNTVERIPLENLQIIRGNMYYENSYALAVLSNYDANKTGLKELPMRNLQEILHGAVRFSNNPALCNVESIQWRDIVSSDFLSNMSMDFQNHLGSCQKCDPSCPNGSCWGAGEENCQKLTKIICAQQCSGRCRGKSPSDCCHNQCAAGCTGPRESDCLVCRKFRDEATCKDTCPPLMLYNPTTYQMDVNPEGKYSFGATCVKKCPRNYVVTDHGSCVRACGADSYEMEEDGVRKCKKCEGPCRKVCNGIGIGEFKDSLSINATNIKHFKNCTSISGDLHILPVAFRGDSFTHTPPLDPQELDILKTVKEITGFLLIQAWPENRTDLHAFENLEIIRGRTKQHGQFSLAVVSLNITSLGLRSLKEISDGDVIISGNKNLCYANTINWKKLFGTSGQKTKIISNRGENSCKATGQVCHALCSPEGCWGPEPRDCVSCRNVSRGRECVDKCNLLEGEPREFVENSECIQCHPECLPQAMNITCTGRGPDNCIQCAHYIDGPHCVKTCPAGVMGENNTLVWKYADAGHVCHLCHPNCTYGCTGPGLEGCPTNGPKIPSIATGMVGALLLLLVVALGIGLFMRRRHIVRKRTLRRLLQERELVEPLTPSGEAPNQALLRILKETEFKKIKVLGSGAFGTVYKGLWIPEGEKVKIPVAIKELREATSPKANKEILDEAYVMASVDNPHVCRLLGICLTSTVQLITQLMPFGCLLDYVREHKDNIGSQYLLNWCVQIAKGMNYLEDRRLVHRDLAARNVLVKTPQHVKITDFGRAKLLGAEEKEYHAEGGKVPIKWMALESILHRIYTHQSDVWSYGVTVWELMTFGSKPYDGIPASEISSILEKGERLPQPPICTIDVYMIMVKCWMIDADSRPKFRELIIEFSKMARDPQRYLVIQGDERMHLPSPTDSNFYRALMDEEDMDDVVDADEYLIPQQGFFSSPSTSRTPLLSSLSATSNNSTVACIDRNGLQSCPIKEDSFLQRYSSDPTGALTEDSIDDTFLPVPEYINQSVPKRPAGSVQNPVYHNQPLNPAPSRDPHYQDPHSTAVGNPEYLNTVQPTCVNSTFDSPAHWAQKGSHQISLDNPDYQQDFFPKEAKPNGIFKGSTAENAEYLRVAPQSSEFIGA

| Structure (SMILES) | IC50 (EGFR L858R) [nM] | IC50 (EGFR (d746-750)) [nM] | IC50 [1] [nM] |
| --- | --- | --- | --- |
| COc1cc2ncnc(-c3cn(C)nc3-c3ccccc3)c2cc1OC(=O)N1CCN2CCCC2C1 (stereo in doubt) [Example 85, 7-methoxy-4-(1-methyl-3-phenyl-1H-pyrazol-4-yl)quinazolin-6-yl (R)-hexahydropyrrolo[1,2-a]pyrazine-2(1H)-carboxylate] | 3.9 | 2.7 | 13.3 |
| Cn1cc(-c2ncnc3cc(C#CCN4CCOCC4)c(NC(=O)C45CC(C4)C5)nc23)c(-c2ccccc2)n1 [Example 454, N-(4-(1-methyl-3-phenyl-1H-pyrazol-4-yl)-7-(3-morpholinoprop-1-yn-1-yl)pyrido[3,2-d]pyrimidin-6-yl)bicyclo[1.1.1]pentane-1-carboxamide] | 18.1 | 4.8 | 11 |
| COc1cc2ncnc(-c3cn(C)nc3-c3ccc(F)cc3)c2nc1NC(=O)C1(C(F)(F)F)CC1 [Example 362, N-(4-(3-(4-fluorophenyl)-1-methyl-1H-pyrazol-4-yl)-7-methoxypyrido[3,2-d]pyrimidin-6-yl)-1-(trifluoromethyl)cyclopropane-1-carboxamide] | 1.1 | 0.5 | 0.7 |
| COc1cc2ncnc(-c3cn(C)nc3-c3ccccc3)c2nc1O[C@@H](C)c1cn(C)nn1 [Example 44, (S)-7-methoxy-6-(1-(1-methyl-1H-1,2,3-triazol-4-yl)ethoxy)-4-(1-methyl-3-phenyl-1H-pyrazol-4-yl)pyrido[3,2-d]pyrimidine] | 3.9 | 2.4 | 14.6 |
| CCn1cc(-c2ncnc3cc(OC)c([C@H](C)O)cc23)c(-c2ccccc2)n1 (single isomer, unassigned) [Example 105, (S)-1-(4-(1-ethyl-3-phenyl-1H-pyrazol-4-yl)-7-methoxyquinazolin-6-yl)ethan-1-ol or (R)-1-(4-(1-ethyl-3-phenyl-1H-pyrazol-4-yl)-7-methoxyquinazolin-6-yl)ethan-1-ol] | 3.3 | 1.3 | 6.5 |
| COc1cc2ncnc(-c3cn(C)nc3-c3ccccc3)c2cc1O[C@H]1CCOC1 [Example 13, (S)-7-methoxy-4-(1-methyl-3-phenyl-1H-pyrazol-4-yl)-6-((tetrahydrofuran-3-yl)oxy)quinazoline] | 4 | 1.9 | 6.2 |
| CCOc1cc2ncnc(-c3cn(CC)nc3-c3ccccc3)c2cc1CO [Example 124, (7-ethoxy-4-(1-ethyl-3-phenyl-1H-pyrazol-4-yl)quinazolin-6-yl)methanol] | 1.3 | 0.9 | 3 |
| [2H]C([2H])([2H])Oc1cc2ncnc(-c3cnn(C([2H])([2H])[2H])c3-c3ccccc3)c2nc1NC(=O)C1(C(F)(F)F)CC1 [Example 487, N-(7-(methoxy-d3)-4-(1-(methyl-d3)-5-phenyl-1H-pyrazol-4-yl)pyrido[3,2-d]pyrimidin-6-yl)-1-(trifluoromethyl)cyclopropane-1-carboxamide] | 50 | 19.5 | 173 |
| COc1cc2ncnc(-c3cn(C)nc3-c3ccccc3)c2cc1NC(=O)c1cn(C(C)C)nc1C [Example 217, 1-isopropyl-N-(7-methoxy-4-(1-methyl-3-phenyl-1H-pyrazol-4-yl)quinazolin-6-yl)-3-methyl-1H-pyrazole-4-carboxamide] | 1.7 | 0.9 | 1.2 |
| COc1cc2ncnc(-c3cn(C)nc3-c3ccccc3)c2nc1O[C@@H](C)c1cocn1 [Example 39, (S)-4-(1-((7-methoxy-4-(1-methyl-3-phenyl-1H-pyrazol-4-yl)pyrido[3,2-d]pyrimidin-6-yl)oxy)ethyl) oxazole] | 3.5 | 2.1 | 5.3 |
| CN(C)CCOc1cc2ncnc(-c3cn(C)nc3-c3ccccc3)c2cc1NC(=O)c1ccccc1F [Example 300, N-(7-(2-(dimethylamino)ethoxy)-4-(1-methyl-3-phenyl-1H-pyrazol-4-yl)quinazolin-6-yl)-2-fluorobenzamide] | 5 | 1.7 | 3.5 |
| COc1cc2ncnc(-c3sc(C)nc3-c3ccccc3)c2cc1NC(=O)C1CC1 [Example 266, N-(7-methoxy-4-(2-methyl-4-phenylthiazol-5-yl)quinazolin-6-yl)cyclopropanecarboxamide] | 1.5 | 1 | 4.9 |
| CCC(=O)Nc1cc2c(-c3cn(C)nc3-c3c(F)cccc3F)ncnc2cc1-c1ccn(C)n1 [Example 453, N-(4-(3-(2,6-difluorophenyl)-1-methyl-1H-pyrazol-4-yl)-7-(1-methyl-1H-pyrazol-3-yl)quinazolin-6-yl)propionamide] | 1.3 | 0.7 | 0.4 |
| CCOc1cc2ncnc(-c3cn(C(C)C)nc3-c3ccccc3)c2cc1[C@@H](C)O (single isomer, unassigned) [Example 109, (R)-1-(7-ethoxy-4-(1-isopropyl-3-phenyl-1H-pyrazol-4-yl)quinazolin-6-yl)ethan-1-ol or (S)-1-(7-ethoxy-4-(1-isopropyl-3-phenyl-1H-pyrazol-4-yl)quinazolin-6-yl)ethan-1-ol] | 3.8 | 2.2 | 4.7 |
| COc1cc2ncnc(-c3cn(C)nc3-c3ccc(F)cc3F)c2cc1N1CCOCC1 [Example 166, 4-(4-(3-(2,4-difluorophenyl)-1-methyl-1H-pyrazol-4-yl)-7-methoxyquinazolin-6-yl)morpholine] | 1.7 | 0.7 | 3.2 |
| COc1cc2ncnc(-c3cn(C)nc3-c3ccccc3)c2nc1O[C@H](C)c1nnc(C)o1 [Example 38, (R)-2-(1-((7-methoxy-4-(1-methyl-3-phenyl-1H-pyrazol-4-yl)pyrido[3,2-d]pyrimidin-6-yl)oxy)ethyl)-5-methyl-1,3,4-oxadiazole] | 5.9 | 6.7 | 25.6 |
| COc1cc2ncnc(-c3cn(C)nc3-c3ccccc3)c2cc1OC(=O)N1[C@H](C)COC[C@@H]1C [Example 63, 7-methoxy-4-(1-methyl-3-phenyl-1H-pyrazol-4-yl)quinazolin-6-yl (3S,5R)-3,5-dimethylmorpholine-4-carboxylate] | 4.8 | 2.4 | 2.5 |
| [2H]C([2H])([2H])n1ncc(-c2ncnc3cc(OC)c(NC(=O)C45CC(N(C)C)(C4)C5)nc23)c1-c1ccccc1 [Example 493] | 92.4 | 31.9 | 258 |
| COc1cc2ncnc(-c3cn(CC(F)F)nc3-c3ccccc3)c2cc1NC(=O)[C@@]12COC[C@@H]1C2 [Example 276, (1R,5R)—N-(4-(1-(2,2-difluoroethyl)-3-phenyl-1H-pyrazol-4-yl)-7-methoxyquinazolin-6-yl)-3-oxabicyclo[3.1.0]hexane-1-carboxamide] | 2 | 1.6 | 1.3 |
| COc1cc2ncnc(-c3cn(C)nc3-c3ccccc3)c2nc1NC(=O)c1cnn(C(F)(F)F)c1C [Example 427, N-(7-methoxy-4-(1-methyl-3-phenyl-1H-pyrazol-4-yl)pyrido[3,2-d]pyrimidin-6-yl)-5-methyl-1-(trifluoromethyl)-1H-pyrazole-4-carboxamide] | 2 | 0.7 | 2.1 |
| COc1cc2ncnc(-c3cn(C)nc3-c3ccccc3)c2cc1OC(=O)N1CCOC[C@H]1C [Example 61, 7-methoxy-4-(1-methyl-3-phenyl-1H-pyrazol-4-yl)quinazolin-6-yl (R)-3-methylmorpholine-4-carboxylate] | 4.5 | 2.3 | 7.9 |
| COc1cc2ncnc(-c3cn(C4CC4)nc3-c3ccccc3)c2nc1NC(=O)[C@]12C[C@H]1CN(C)C2 (single isomer, unassigned) [Example 407, (1R,5R)—N-(4-(1-cyclopropyl-3-phenyl-1H-pyrazol-4-yl)-7-methoxypyrido[3,2-d]pyrimidin-6-yl)-3-methyl-3-azabicyclo[3.1.0]hexane-1-carboxamide or (1S,5S)—N-(4-(1-cyclopropyl-3-phenyl-1H-pyrazol-4-yl)-7-methoxypyrido[3,2-d]pyrimidin-6-yl)-3-methyl-3-azabicyclo[3.1.0]hexane-1-carboxamide] | 2.1 | 0.7 | 1.4 |
| COc1cc2ncnc(-c3cn(C)nc3-c3ccccc3)c2cc1NC(=O)[C@H]1CCN(C)C[C@@H]1F [Example 285, (3R,4R)-3-fluoro-N-(7-methoxy-4-(1-methyl-3-phenyl-1H-pyrazol-4-yl)quinazolin-6-yl)-1-methylpiperidine-4-carboxamide] | 1.3 | 0.8 | 0.5 |
| Cn1cc(-c2ccc3c(-c4c[nH]nc4-c4cc(F)ccc4F)ncnc3c2)cn1 [Example 444, 4-(3-(2,5-difluorophenyl)-1H-pyrazol-4-yl)-7-(1-methyl-1H-pyrazol-4-yl)quinazoline] | 0.5 | 0.4 | 0.5 |
| COc1cc2ncnc(-c3cn(C)nc3-c3ccccc3)c2cc1N1CCC[C@H](O)C1 [Example 164, (S)-1-(7-methoxy-4-(1-methyl-3-phenyl-1H-pyrazol-4-yl)quinazolin-6-yl) piperidin-3-ol] | 2.9 | 1.7 | 6.4 |
| COc1cc2ncnc(-c3cn(C)nc3-c3ccccc3F)c2cc1N1CCOCC1 [Example 159, 4-(4-(3-(2-fluorophenyl)-1-methyl-1H-pyrazol-4-yl)-7-methoxyquinazolin-6-yl)morpholine] | 3 | 1.5 | 3.8 |
